Source: patent publication US20040171566A1, “Antisense modulation of p38 mitogen activated protein kinase expression” (priority 1999, published 2004)
In the oligonucleotide strings, read from the 5' end, every base follows the letter of its sugar. An asterisk marks phosphorothioate; unmarked linkages are phosphodiester. Other units and linkages are bracketed, terminal groups are in braces. A string of capitals states the bases alone. e = 2'-O-(2-methoxyethyl) (MOE); [5mC] = 5-methylcytosine; d = 2'-deoxy (DNA)

Legend:
[1] = system: human p38α mRNA; assay: Inhibition of human p38α mRNA expression in Jurkat cells, Northern blot; type: cell-based
Method: (§1) The human Jurkat T-cell line (American Type Culture Collection, Manassas, Va.) was maintained in RPMI 1640 growth media supplemented with 10% fetal bovine serum (FBS; Hyclone, Logan, Utah). HUVEC cells (Clonetics, San Diego, Calif.) were cultivated in endothelial basal media supplemented with 10% FBS (Hyclone, Logan, Utah).
Jurkat cells were grown to approximately 75% confluency and resuspended in culture media at a density of 1×10^7 cells/ml. A total of 3.6×10^6 cells were employed for each treatment by combining 360 μl of cell suspension with oligonucleotide at the indicated concentrations to reach a final volume of 400 μl. Cells were then transferred to an electroporation cuvette and electroporated using an Electrocell Manipulator 600 instrument (Biotechnologies and Experimental Research, Inc.) employing 150 V, 1000 μF, at 13 Ω. Electroporated cells were then transferred to conical tubes containing 5 ml of culture media, mixed by inversion, and plated onto 10 cm culture dishes.
(§2) Total mRNA was isolated using the RNEASY7 Mini Kit (Qiagen, Valencia, Calif.; similar kits from other manufacturers may also be used), separated on a 1% agarose gel, transferred to HYBOND™-N+ membrane (Amersham Pharmacia Biotech, Piscataway, N.J.), a positively charged nylon membrane, and probed. p38 MAPK probes were made using the Prime-A-Gene7 kit (Promega Corporation, Madison, Wis.), a random primer labeling kit, using mouse p38α or p38β cDNA as a template. A glyceraldehyde 3-phosphate dehydrogenase (G3PDH) probe was purchased from Clontech (Palo Alto, Calif.), Catalog Number 9805-1. The fragments were purified from low-melting temperature agarose, as described in Maniatis, T., et al., Molecular Cloning: A Laboratory Manual, 1989. The G3PDH probe was labeled with REDIVUE™ ^32P-dCTP (Amersham Pharmacia Biotech, Piscataway, N.J.) and Strip-EZ labelling kit (Ambion, Austin, Tex.). mRNA was quantitated by a PhosphoImager (Molecular Dynamics, Sunnyvale, Calif.).
Jurkat cells were grown and treated as described above except the concentration of oligonucleotide was varied as indicated in Table 3. […] Maximum inhibition was approximately 70% with 16500 (SEQ ID NO 17).

[2] = system: human p38β mRNA; assay: Inhibition of human p38β mRNA expression in HUVEC cells, Northern blot; type: cell-based
Method: as §1
HUVEC cells were allowed to reach 75% confluency prior to use. The cells were washed twice with warm (37° C.) OPTI-MEM™ (Life Technologies). The cells were incubated in the presence of the appropriate culture medium, without the growth factors added, and the oligonucleotide formulated in LIPOFECTIN7 (Life Technologies), a 1:1 (w/w) liposome formulation of the cationic lipid N-[1-(2,3-dioleyloxy)propyl]-n,n,n-trimethylammonium chloride (DOTMA), and dioleoyl phosphotidylethanolamine (DOPE) in membrane filtered water. HUVEC cells were treated with 100 nM oligonucleotide in 10 μg/ml LIPOFECTIN7. Treatment was for four hours.
as §2
Every oligonucleotide tested gave at least 50% inhibition.
Oligonucleotides 17893 (SEQ ID NO. 27), 17899 (SEQ ID NO:33), 17904 (SEQ ID NO. 38), and 17907 (SEQ ID NO. 41) were chosen for dose response studies. HUVEC cells were cultured and treated as described in Example 2 except that the oligonucleotide concentration was varied as shown in Table 6. The Lipofectin7/Oligo ratio was maintained at 3 μg Lipofectin7/100 nM oligo, per ml. mRNA was measured by Northern blot as described in Example 2.

[3] = Jurkat cells electroporated with 10 μM oligonucleotide, Northern blot
[4] = 100 nM oligonucleotide in 10 μg/ml LIPOFECTIN, four hours, Northern blot

GTGGAGGCCAGTCCCCGGGA [ISIS 16487] was tested, and the “% mRNA EXPRESSION” value [1, 3] was 171%.

With “TGAAAAGGCCTTCCCCTCAC (antisense eT*eG*eA*eA*eA*eA*dG*dG*dC*dC*dT*dT*dC*dC*e[5mC]*e[5mC]*eT*e[5mC]*eA*e[5mC]) [ISIS 16502]” the “% mRNA EXPRESSION” value [1, 3] was 79% and the “% mRNA Inhibition” value [1, 3] was 21%.

“GGTCTCGGGCGACCTCTCCT (antisense eG*eG*eT*e[5mC]*eT*e[5mC]*dG*dG*dG*dC*dG*dA*dC*dC*eT*e[5mC]*eT*e[5mC]*e[5mC]*eT) [ISIS 16491]” was tested, and the “% mRNA EXPRESSION” value [1, 3] was 148%.

In the case of “ACACATGTTTGTGCATGCAT (antisense; chemistry not fully specified) [ISIS 17906]”, the “% mRNA EXPRESSION” value [2, 4] is reported as 22% and the “% mRNA Inhibition” value [2, 4] is reported as 78%.

In the case of “AGGCACTTGAATAATATTTG (eA*eG*eG*e[5mC]*eA*e[5mC]*dT*dT*dG*dA*dA*dT*dA*dA*eT*eA*eT*eT*eT*eG; antisense) [ISIS 16503]”, the “% mRNA EXPRESSION” value [1, 3] is reported as 65%, the “% mRNA EXPRESSION” value ([1]; Jurkat cells, dose 2.5 nM) is reported as 74% and the “% mRNA Inhibition” value ([1]; Jurkat cells, dose 2.5 nM) is reported as 26%. For the same sequence, the “% mRNA EXPRESSION” value ([1]; Jurkat cells, dose 5 nM) was 61%, the “% mRNA Inhibition” value ([1]; Jurkat cells, dose 5 nM) was 39% and the “% mRNA EXPRESSION” value ([1]; Jurkat cells, dose 10 nM) was 53%. For the same sequence, the “% mRNA Inhibition” value ([1]; Jurkat cells, dose 10 nM) was 47%, the “% mRNA EXPRESSION” value ([1]; Jurkat cells, dose 20 nM) was 41% and the “% mRNA Inhibition” value ([1]; Jurkat cells, dose 20 nM) was 59%.

“CCGAACAGACGGAGCCGTAT (chemistry not fully specified) [ISIS 17894]” was tested, and the “% mRNA EXPRESSION” value [2, 4] was 13% and the “% mRNA Inhibition” value [2, 4] was 87%.

“ATGTTCTTCCAGTCAACAGC (antisense eA*eT*eG*eT*eT*e[5mC]*dT*dT*dC*dC*dA*dG*dT*dC*eA*eA*e[5mC]*eA*eG*e[5mC]) [ISIS 16498]” was tested, and the “% mRNA EXPRESSION” value [1, 3] was 88% and the “% mRNA Inhibition” value [1, 3] was 12%.

With “AACGCTCTCATCATATGGCT (chemistry not fully specified) [ISIS 17903]” the “% mRNA EXPRESSION” value [2, 4] was 11% and the “% mRNA Inhibition” value [2, 4] was 89%.

For “CAGCACCTCACTGCTCAATC (chemistry not fully specified) [ISIS 17904]”, the “% mRNA EXPRESSION” value [2, 4] was 9%, the “% mRNA Inhibition” value [2, 4] was 91% and the “% mRNA EXPRESSION” value ([2]; dose 10 nM) was 31%. For the same sequence, the “% mRNA Inhibition” value ([2]; dose 10 nM) was 69%, the “% mRNA EXPRESSION” value ([2]; dose 25 nM) was 21% and the “% mRNA Inhibition” value ([2]; dose 25 nM) was 79%. For the same sequence, the “% mRNA EXPRESSION” value ([2]; dose 50 nM) was 17%, the “% mRNA Inhibition” value ([2]; dose 50 nM) was 83% and the “% mRNA EXPRESSION” value ([2]; dose 100 nM) was 19%. The “% mRNA Inhibition” value ([2]; dose 100 nM) was 81%.

For “AACCAGGTGCTCAGGACTCC (antisense eA*eA*e[5mC]*e[5mC]*eA*eG*dG*dT*dG*dC*dT*dC*dA*dG*eG*eA*e[5mC]*eT*e[5mC]*e[5mC]) [ISIS 16500]”, the “% mRNA EXPRESSION” value [1, 3] was 63%, the “% mRNA EXPRESSION” value ([1]; Jurkat cells, dose 2.5 nM) was 82% and the “% mRNA Inhibition” value ([1]; Jurkat cells, dose 2.5 nM) was 18%. For the same sequence, the “% mRNA EXPRESSION” value ([1]; Jurkat cells, dose 5 nM) was 71%, the “% mRNA Inhibition” value ([1]; Jurkat cells, dose 5 nM) was 29% and the “% mRNA EXPRESSION” value ([1]; Jurkat cells, dose 10 nM) was 49%. The “% mRNA Inhibition” value ([1]; Jurkat cells, dose 10 nM) was 51%, the “% mRNA EXPRESSION” value ([1]; Jurkat cells, dose 20 nM) was 31% and the “% mRNA Inhibition” value ([1]; Jurkat cells, dose 20 nM) was 69%. For the same sequence, the “Maximum inhibition of p38α mRNA” value ([1]; Jurkat cells, dose response) was “approximately 70%”.

“GCGTGAAGACGTCCAGAAGC (chemistry not fully specified) [ISIS 17896]” was tested, and the “% mRNA EXPRESSION” value [2, 4] was 24% and the “% mRNA Inhibition” value [2, 4] was 76%.

With “AACGTGCTCGTCAAGTGCCA (chemistry not fully specified) [ISIS 17898]” the “% mRNA EXPRESSION” value [2, 4] was 49% and the “% mRNA Inhibition” value [2, 4] was 51%.

For “TTTAGGTCCCTGTGAATTAT (eT*eT*eT*eA*eG*eG*dT*dC*dC*dC*dT*dG*dT*dG*eA*eA*eT*eT*eA*eT; antisense) [ISIS 16497]”, the “% mRNA EXPRESSION” value [1, 3] was 104%.

With “AAGACCGGGCCCGGAATTCC (antisense eA*eA*eG*eA*e[5mC]*e[5mC]*dG*dG*dG*dC*dC*dC*dG*dG*eA*eA*eT*eT*e[5mC]*e[5mC]) [ISIS 16486]” the “% mRNA EXPRESSION” value [1, 3] was 212%.

“CAGAGAGCCTCCTGGGAGGG (antisense e[5mC]*eA*eG*eA*eG*eA*dG*dC*dC*dT*dC*dC*dT*dG*eG*eG*eA*eG*eG*eG) [ISIS 16489]” was tested, and the “% mRNA EXPRESSION” value [1, 3] was 149%.

In the case of “ACACATGCACACACACTAAC (antisense eA*e[5mC]*eA*e[5mC]*eA*eT*dG*dC*dA*dC*dA*dC*dA*dC*eA*e[5mC]*eT*eA*eA*e[5mC]) [ISIS 16505]”, the “% mRNA EXPRESSION” value [1, 3] is reported as 93% and the “% mRNA Inhibition” value [1, 3] is reported as 7%.

For “CTTCCACCATGGAGGAAATC (antisense e[5mC]*eT*eT*e[5mC]*e[5mC]*eA*dC*dC*dA*dT*dG*dG*dA*dG*eG*eA*eA*eA*eT*e[5mC]) [ISIS 16504]”, the “% mRNA EXPRESSION” value [1, 3] was 72% and the “% mRNA Inhibition” value [1, 3] was 28%.
